{
  "source": "patent US20030158250A1",
  "about": "“Agents correcting gene expression regulatory error” (priority 2000, published 2003)",
  "key": {"interleukin-10 (IL-10)": {"system": "interleukin-10 (IL-10)", "experiment": "LPS-induced IL-10 production in RAW 264.7 cells (ELISA)", "assay_type": "cell-based", "conditions": "final concentration 20 μM, 5 hours, then LPS 18 hours, IL-10 in culture supernatant by ELISA", "method": "RAW 264.7 cells (ATCC TIB 71) were suspended in a Dulbecco's modified Eagle's medium (manufactured by Bio Whittaker; 12-604F) containing 10% fetal bovine serum (manufactured by Gibco), so as to have a concentration of 3×10^5 cells/ml. The cell suspension was added to each well of a 48-well microtiter plate in a volume of 0.5 ml each. The cells were cultured at 37° C. in the presence of 5% CO2 gas overnight. To each well was added 5 μl of a 2 mM DGE aqueous solution (final concentration: 20 μM), and the cells were cultured for additional 5 hours. Thereafter, 5 μl of a 100 μg/ml lipopolysaccharide (LPS, manufactured by Sigma, L-2012) aqueous solution was added thereto, and the cells were cultured for 18 hours, and thereafter the culture supernatant was recovered. The content of the interleukin-10 (IL-10) in the culture supernatant was assayed by the enzyme immuno-sandwich assay. Here, the group with no addition of DGE and LPS aqueous solution (control) was set as a negative control, and the group with addition of LPS aqueous solution (control+LPS) alone was set as a positive control. In addition, all of the assays were carried out twice."}, "TNFα": {"system": "TNFα", "experiment": "LPS-stimulated TNFα production in monocytes (ELISA)", "assay_type": "cell-based", "conditions": "human monocytes, final concentration 10 μM, 20 μM or 40 μM, 5 hours, then LPS 4 hours", "method": "PBMCs were isolated in the same manner as in item (1) of Example 4. PBMCs were suspended in RPMI 1640 medium containing 5% human serum of blood type-AB, 0.1 mM nonessential amino acid, 1 mM sodium pyruvate, 2 mM L-glutamine (hereinabove manufactured by Bio Whittaker), 10 mM HEPES (manufactured by nakalai tesque), and 1% streptomycin-penicillin (manufactured by Gibco BRL) (hereinafter simply referred to as “5HRPMI medium”) so as to have a concentration of 2×10^6 cells/ml. Thereafter, the suspension was spread on a 24-well cell culture plate (manufactured by Falcon) in a volume of 1 ml/well, and the cells were incubated in a wet-type incubator at 37° C. and 5% CO2 for 1.5 hours. After 1.5 hours, the non-adherent cells were removed by suction, and each well was washed with RPMI 1640 medium, and 1 ml of the 5HRPMI medium was added to the wells, to give monocytes.\nTo the monocytes obtained above was added in each well 10 μl of a 1 mM, 2 mM or 4 mM aqueous DGE solution (each having a final concentration of 10 μM, 20 μM or 40 μM), or a 5 mM, 10 mM or 20 mM aqueous agarobiose solution (each having a final concentration of 50 μM, 100 μM or 200 μM), or 10 μl of water as a control (i.e. each of concentrations of DGE and agarobiose being 0 μM), and the cells were incubated in a wet-type incubator at 37° C. and 5% CO2 for 5 hours. […]"}},
  "data": [
    {"smiles": "O=C1C=CC(CO)OC1O", "note": "[DGE, L-glycero-1,5-epoxy-1αβ,6-dihydroxy-cis-hex-3-en-2-one]", "values": [
      {"measurement": "inhibition of LPS-induced IL-10 production", "setting": "interleukin-10 (IL-10)", "value": "inhibition of LPS-induced IL-10 production was found"},
      {"measurement": "inhibition of LPS-stimulated TNFα production", "setting": "TNFα", "value": "inhibition"}
    ]}
  ]
}
